Source: patent publication US8198273B2, “Compounds and methods for kinase modulation, and indications therefor” (Plexxikon Inc., priority 2009, dated 2012)

Key:
[1] = test system: COLO205 colon adenocarcinoma cells (B-Raf V600E); test: COLO205 cell growth inhibition (ATPlite); format: cell-based; conditions: Homo sapiens, COLO 205, 72 h; COLO205, 3 days incubation
Method in brief: (§1)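 Cells plated overnight, then exposed 3 days at 37° C to 8-point 1:3 compound dilutions topping at 10 μM final. Viability read as ATPlite luminescence, proportional to cell number; IC50 from luminescence versus concentration.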

CYP2D6 = CYP2D6 (Homo sapiens, UniProt P10635); test: CYP2D6 inhibition (fluorescent substrate); format: in vitro ADME; conditions: CYP2D6, AMMC substrate; read-out: Cyp IC50 2D6
Experimental: (§2) CYP (Cytochrome P450) enzymes are the major drug metabolizing enzymes present in the liver. The inhibition of CYP enzyme activity (IC50) for each of CYP1A2, CYP2C19, CYP2C9, CYP2D6, CYP3A4(BFC) and CYP3A4(BQ) is determined for compounds, where inhibition of metabolism of a known substrate leads to a decrease in the fluorescence of the metabolized product. The fluorescence of the product is monitored as a function of compound concentration.
(§3) Compounds are dissolved in dimethyl sulfoxide to a concentration of 100 mM. These are diluted 1 μL into 82 μL of acetonitrile. […] These are then serially diluted 1:1 (160 μL to 160 μL co-factor mix) for a total of 10 points. A 10 μL aliquot of this final mixture is dispensed into 384 well assay plates and incubated for 10 minutes at 37° C. […] Assay plates are incubated at 37° C. […] The signal versus compound concentration is used to determine the IC50. The enzymes and substrates for this assay are obtained from BD Biosciences.

[2] = test system: A375 melanoma cells (B-Raf V600E); test: A375 cell growth inhibition (ATPlite); format: cell-based; conditions: Homo sapiens, A-375, 72 h; A375, 3 days incubation
Method in brief: as §1

CYP1A2 = biological target: T1, CYP1A2 (Homo sapiens, UniProt P05177); test: CYP1A2 inhibition (fluorescent substrate); format: in vitro ADME; conditions: CYP1A2, CEC substrate; read-out: Cyp IC50 1A2
T1 sequence (P05177 1-516): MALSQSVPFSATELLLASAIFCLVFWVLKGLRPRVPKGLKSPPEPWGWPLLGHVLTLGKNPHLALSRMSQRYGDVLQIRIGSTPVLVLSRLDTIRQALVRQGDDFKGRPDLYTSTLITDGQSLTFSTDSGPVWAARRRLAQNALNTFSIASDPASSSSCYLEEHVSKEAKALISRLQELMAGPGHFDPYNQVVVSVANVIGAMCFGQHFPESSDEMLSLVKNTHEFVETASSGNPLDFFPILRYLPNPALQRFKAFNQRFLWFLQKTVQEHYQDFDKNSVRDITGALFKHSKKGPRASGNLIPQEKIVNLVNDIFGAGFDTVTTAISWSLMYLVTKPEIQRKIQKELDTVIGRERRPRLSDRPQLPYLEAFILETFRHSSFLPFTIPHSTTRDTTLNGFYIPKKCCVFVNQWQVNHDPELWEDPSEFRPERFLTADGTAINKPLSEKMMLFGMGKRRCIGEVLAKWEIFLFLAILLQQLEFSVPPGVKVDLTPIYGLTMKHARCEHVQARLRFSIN
Experimental: as §2, §3

CYP2C19 = CYP2C19 (Homo sapiens, UniProt P33261); test: CYP2C19 inhibition (fluorescent substrate); format: in vitro ADME; conditions: CYP2C19, CEC substrate; read-out: Cyp IC50 2C19
Experimental: as §2, §3

CYP2C19, sequence (P33261 whole entry): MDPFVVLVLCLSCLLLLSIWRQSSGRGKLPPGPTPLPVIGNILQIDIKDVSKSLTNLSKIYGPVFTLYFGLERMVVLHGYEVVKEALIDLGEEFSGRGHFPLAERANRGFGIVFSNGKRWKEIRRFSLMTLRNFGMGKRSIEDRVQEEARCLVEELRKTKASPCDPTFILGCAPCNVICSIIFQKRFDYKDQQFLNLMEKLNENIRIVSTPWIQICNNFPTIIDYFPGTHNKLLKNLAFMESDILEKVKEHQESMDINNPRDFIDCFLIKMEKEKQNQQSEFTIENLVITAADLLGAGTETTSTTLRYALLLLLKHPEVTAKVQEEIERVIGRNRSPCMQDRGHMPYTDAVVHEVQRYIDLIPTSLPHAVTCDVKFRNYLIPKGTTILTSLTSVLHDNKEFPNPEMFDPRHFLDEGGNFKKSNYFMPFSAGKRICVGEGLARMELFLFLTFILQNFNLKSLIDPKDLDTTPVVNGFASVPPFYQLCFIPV
CYP2D6, sequence (P10635 whole entry): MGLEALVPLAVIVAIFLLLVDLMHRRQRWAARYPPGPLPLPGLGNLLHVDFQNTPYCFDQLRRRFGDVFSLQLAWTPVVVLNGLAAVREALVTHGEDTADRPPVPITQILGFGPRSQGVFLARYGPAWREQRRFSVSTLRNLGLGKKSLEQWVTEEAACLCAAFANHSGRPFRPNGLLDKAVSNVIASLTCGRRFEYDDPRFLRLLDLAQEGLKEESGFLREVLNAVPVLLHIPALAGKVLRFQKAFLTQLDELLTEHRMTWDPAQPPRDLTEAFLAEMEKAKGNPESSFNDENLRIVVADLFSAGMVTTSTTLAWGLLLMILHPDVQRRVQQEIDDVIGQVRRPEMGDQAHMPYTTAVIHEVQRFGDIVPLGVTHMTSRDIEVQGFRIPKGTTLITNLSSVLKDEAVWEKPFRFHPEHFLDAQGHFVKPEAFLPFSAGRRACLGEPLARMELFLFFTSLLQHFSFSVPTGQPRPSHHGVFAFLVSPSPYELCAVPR

Row | SMILES | IC50 [1] [µM] | IC50 (CYP2D6) [µM] | IC50 [2] [µM] | IC50 (CYP1A2) [µM] | IC50 (CYP2C19) [µM]
1 | Cc1cnc2[nH]cc(C(=O)c3c(F)ccc(NS(=O)(=O)c4ccccc4F)c3F)c2c1 [P-2014, N-[2,4-Difluoro-3-(5-methyl-1H-pyrrolo[2,3-b]pyridine-3-carbonyl)-phenyl]-2-fluoro-benzenesulfonamide] | < 5 | > 10 | < 1 | > 10 | > 10
2 | Cc1cnc2[nH]cc(C(=O)c3c(F)ccc(NS(=O)(=O)c4cc(F)ccc4F)c3F)c2c1 [P-2015, N-[2,4-Difluoro-3-(5-methyl-1H-pyrrolo[2,3-b]pyridine-3-carbonyl)-phenyl]-2,5-difluoro-benzenesulfonamide] | < 1 | > 10 | < 1 | > 10 | 5 to 10
3 | Cc1cnc2[nH]cc(C(=O)c3c(F)ccc(NS(=O)(=O)c4cccc(F)c4)c3F)c2c1 [P-2016, N-[2,4-Difluoro-3-(5-methyl-1H-pyrrolo[2,3-b]pyridine-3-carbonyl)-phenyl]-3-fluoro-benzenesulfonamide] | < 5 | > 10 | < 1 | > 10 | > 10
4 | O=C(c1c(F)ccc(NS(=O)(=O)c2ccccc2F)c1F)c1c[nH]c2nccc(Cl)c12 [P-2017, N-[3-(4-Chloro-1H-pyrrolo[2,3-b]pyridine-3-carbonyl)-2,4-difluoro-phenyl]-2-fluoro-benzenesulfonamide] | < 5 | > 10 | < 1 | > 10 | > 10
5 | O=C(c1c(F)ccc(NS(=O)(=O)c2cc(F)ccc2F)c1F)c1c[nH]c2nccc(Cl)c12 [P-2018, N-[3-(4-Chloro-1H-pyrrolo[2,3-b]pyridine-3-carbonyl)-2,4-difluoro-phenyl]-2,5-difluoro-benzenesulfonamide] | < 5 | > 10 | < 1 | > 10 | > 10
6 | O=C(c1c(F)ccc(NS(=O)(=O)c2cccc(F)c2)c1F)c1c[nH]c2nccc(Cl)c12 [P-2019, N-[3-(4-Chloro-1H-pyrrolo[2,3-b]pyridine-3-carbonyl)-2,4-difluoro-phenyl]-3-fluoro-benzenesulfonamide] | < 5 | > 10 | < 5 | > 10 | > 10
7 | COc1ccnc2[nH]cc(C(=O)c3c(F)ccc(NS(=O)(=O)c4ccccc4F)c3F)c12 [P-2021, N-[2,4-Difluoro-3-(4-methoxy-1H-pyrrolo[2,3-b]pyridine-3-carbonyl)-phenyl]-2-fluoro-benzenesulfonamide] | < 5 | > 10 | < 1 | > 10 | > 10
8 | COc1ccnc2[nH]cc(C(=O)c3c(F)ccc(NS(=O)(=O)c4cc(F)ccc4F)c3F)c12 [P-2022, N-[2,4-Difluoro-3-(4-methoxy-1H-pyrrolo[2,3-b]pyridine-3-carbonyl)-phenyl]-2,5-difluoro-benzenesulfonamide] | < 5 | > 10 | < 5 | > 10 | > 10
9 | COc1ccnc2[nH]cc(C(=O)c3c(F)ccc(NS(=O)(=O)c4cccc(F)c4)c3F)c12 [P-2023, N-[2,4-Difluoro-3-(4-methoxy-1H-pyrrolo[2,3-b]pyridine-3-carbonyl)-phenyl]-3-fluoro-benzenesulfonamide] | < 5 | > 10 | < 1 | > 10 | > 10
10 | Cc1cnc2[nH]cc(C(=O)c3c(F)ccc(NS(=O)(=O)c4c(F)cccc4F)c3F)c2c1 [P-2024, N-[2,4-Difluoro-3-(5-methyl-1H-pyrrolo[2,3-b]pyridine-3-carbonyl)-phenyl]-2,6-difluoro-benzenesulfonamide] | < 5 | > 10 | < 5 | > 10 | > 10
11 | N#Cc1cnc2[nH]cc(C(=O)c3c(F)ccc(NS(=O)(=O)c4c(F)cccc4F)c3F)c2c1 [P-2029, N-[3-(5-Cyano-1H-pyrrolo[2,3-b]pyridine-3-carbonyl)-2,4-difluoro-phenyl]-2,6-difluoro-benzenesulfonamide] | < 5 | > 10 | < 5 | > 10 | > 10
12 | COc1ccnc2[nH]cc(C(=O)c3c(F)ccc(NS(=O)(=O)c4c(F)cccc4F)c3F)c12 [P-2031, N-[2,4-Difluoro-3-(4-methoxy-1H-pyrrolo[2,3-b]pyridine-3-carbonyl)-phenyl]-2,6-difluoro-benzenesulfonamide] | < 5 | > 10 | < 5 | > 10 | > 10
13 | O=C(c1c(F)ccc(NS(=O)(=O)c2c(F)cccc2F)c1F)c1c[nH]c2nccc(Cl)c12 [P-2033, N-[3-(4-Chloro-1H-pyrrolo[2,3-b]pyridine-3-carbonyl)-2,4-difluoro-phenyl]-2,6-difluoro-benzenesulfonamide] | < 10 | > 10 | < 5 | > 10 | > 10
14 | N#Cc1ccnc2[nH]cc(C(=O)c3c(F)ccc(NS(=O)(=O)c4cc(F)ccc4F)c3F)c12 [P-2036, N-[3-(4-Cyano-1H-pyrrolo[2,3-b]pyridine-3-carbonyl)-2,4-difluoro-phenyl]-2,5-difluoro-benzenesulfonamide] | < 1 | > 10 | < 5 | > 10 | > 10
15 | N#Cc1ccnc2[nH]cc(C(=O)c3c(F)ccc(NS(=O)(=O)c4cccc(F)c4)c3F)c12 [P-2039, N-[3-(4-Cyano-1H-pyrrolo[2,3-b]pyridine-3-carbonyl)-2,4-difluoro-phenyl]-3-fluoro-benzenesulfonamide] | < 5 | > 10 | < 5 | > 10 | > 10
16 | COc1ncc(-c2cnc3[nH]cc(C(=O)c4c(F)ccc(NS(=O)(=O)c5ccccc5F)c4F)c3c2)cn1 [P-2041, N-{2,4-Difluoro-3-[5-(2-methoxy-pyrimidin-5-yl)-1H-pyrrolo[2,3-b]pyridine-3-carbonyl]-phenyl}-2-fluoro-benzenesulfonamide] | < 1 | > 10 | < 1 | > 10 | > 10
17 | COc1ncc(-c2cnc3[nH]cc(C(=O)c4c(F)ccc(NS(=O)(=O)c5cc(F)ccc5F)c4F)c3c2)cn1 [P-2042, N-{2,4-Difluoro-3-[5-(2-methoxy-pyrimidin-5-yl)-1H-pyrrolo[2,3-b]pyridine-3-carbonyl]-phenyl}-2,5-difluoro-benzenesulfonamide] | < 0.1 | > 10 | < 1 | > 10 | > 10
18 | COc1ncc(-c2cnc3[nH]cc(C(=O)c4c(F)ccc(NS(=O)(=O)c5c(F)cccc5F)c4F)c3c2)cn1 [P-2043, N-{2,4-Difluoro-3-[5-(2-methoxy-pyrimidin-5-yl)-1H-pyrrolo[2,3-b]pyridine-3-carbonyl]-phenyl}-2,6-difluoro-benzenesulfonamide] | < 1 | 5 to 10 | < 5 | > 10 | > 10
19 | COc1ncc(-c2cnc3[nH]cc(C(=O)c4c(F)ccc(NS(=O)(=O)c5cccc(F)c5)c4F)c3c2)cn1 [P-2045, N-{2,4-Difluoro-3-[5-(2-methoxy-pyrimidin-5-yl)-1H-pyrrolo[2,3-b]pyridine-3-carbonyl]-phenyl}-3-fluoro-benzenesulfonamide] | < 1 | > 10 | < 5 | > 10 | > 10
20 | N#Cc1cnc2[nH]cc(C(=O)c3c(F)ccc(NS(=O)(=O)c4ccccc4)c3F)c2c1 [P-2046, N-[3-(5-Cyano-1H-pyrrolo[2,3-b]pyridine-3-carbonyl)-2,4-difluoro-phenyl]-benzenesulfonamide] | < 1 | > 10 | < 1 | > 10 | < 5
